{
  "source": "patent US6573244B1",
  "about": "(priority 1999, dated 2003)",
  "key": {"[1]": {"conditions": "rat, in vivo, ip"}, "BttxB": {"target": "BttxB (Clostridium botulinum, UniProt P10844)", "assay": "biochemical"}, "Bttxs": {"tested_on": "Bttxs", "conditions": "cited from earlier work"}, "[2]": {"target": "T1, Botulinum toxin B, P10844", "T1 chain": "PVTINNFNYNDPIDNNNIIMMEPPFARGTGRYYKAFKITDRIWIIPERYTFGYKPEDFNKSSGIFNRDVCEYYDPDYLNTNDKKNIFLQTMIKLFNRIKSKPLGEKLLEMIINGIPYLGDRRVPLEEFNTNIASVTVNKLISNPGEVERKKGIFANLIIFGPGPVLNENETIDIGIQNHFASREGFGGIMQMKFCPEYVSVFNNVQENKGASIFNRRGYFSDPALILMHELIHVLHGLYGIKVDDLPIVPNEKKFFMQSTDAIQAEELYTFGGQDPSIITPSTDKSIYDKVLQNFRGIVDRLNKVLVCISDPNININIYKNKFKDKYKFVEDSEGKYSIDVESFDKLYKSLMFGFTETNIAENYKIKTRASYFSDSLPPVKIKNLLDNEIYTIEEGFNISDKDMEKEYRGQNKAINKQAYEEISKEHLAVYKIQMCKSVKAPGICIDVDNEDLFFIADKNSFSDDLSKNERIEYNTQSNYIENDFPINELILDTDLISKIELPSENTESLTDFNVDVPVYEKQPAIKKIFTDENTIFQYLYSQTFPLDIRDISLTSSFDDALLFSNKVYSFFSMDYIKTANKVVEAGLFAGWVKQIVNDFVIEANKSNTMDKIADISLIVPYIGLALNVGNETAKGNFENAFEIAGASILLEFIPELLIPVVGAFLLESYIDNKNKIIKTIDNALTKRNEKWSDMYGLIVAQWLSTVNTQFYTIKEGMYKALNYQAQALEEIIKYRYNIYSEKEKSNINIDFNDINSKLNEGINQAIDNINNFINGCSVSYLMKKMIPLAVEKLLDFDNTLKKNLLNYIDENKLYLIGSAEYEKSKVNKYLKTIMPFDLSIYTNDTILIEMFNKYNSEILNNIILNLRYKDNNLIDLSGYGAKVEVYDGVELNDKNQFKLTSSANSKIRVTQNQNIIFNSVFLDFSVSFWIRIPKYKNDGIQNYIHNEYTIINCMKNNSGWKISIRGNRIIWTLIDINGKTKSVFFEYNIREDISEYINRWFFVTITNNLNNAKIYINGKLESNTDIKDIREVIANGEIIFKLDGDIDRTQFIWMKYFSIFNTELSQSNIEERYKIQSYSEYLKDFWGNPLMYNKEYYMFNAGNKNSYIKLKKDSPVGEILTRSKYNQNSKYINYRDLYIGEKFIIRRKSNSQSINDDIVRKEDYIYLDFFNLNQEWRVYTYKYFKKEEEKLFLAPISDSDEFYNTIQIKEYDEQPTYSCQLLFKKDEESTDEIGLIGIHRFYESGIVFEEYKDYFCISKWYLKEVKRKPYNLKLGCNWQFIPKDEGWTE", "assay": "cell-based or functional assay"}},
  "note": "Ends that are not written are not given here.",
  "data": [
    {"molecule": "CC(C)C[C@H](NC(=O)CNC(=O)[C@H](C)NC(=O)[C@H](CCCNC(=N)N)NC(=O)[C@H](CO)NC(=O)[C@H](CO)NC(=O)[C@H](CCCNC(=N)N)NC(=O)[C@@H](NC(=O)[C@H](CCCCN)NC(=O)[C@H](C)NC(=O)[C@H](CCCCN)NC(=O)[C@H](C)NC(=O)[C@H](CCCNC(=N)N)NC(=O)[C@@H](NC(=O)[C@H](CCCCN)NC(=O)CNC(=O)CNC(=O)[C@H](CCC(N)=O)NC(=O)[C@H](CCCCN)NC(=O)CNC(=O)[C@H](CCCNC(=N)N)NC(=O)CNC(=O)[C@H](C)N)C(C)C)[C@@H](C)O)C(=O)N[C@@H](CCC(N)=O)C(=O)N[C@@H](Cc1ccccc1)C(=O)N1CCC[C@H]1C(=O)N[C@H](C(=O)NCC(=O)N[C@@H](CCCNC(=N)N)C(=O)N[C@H](C(=O)N[C@@H](Cc1c[nH]cn1)C(=O)N[C@@H](CCCNC(=N)N)C(=O)N[C@@H](CC(C)C)C(=O)N[C@@H](CC(C)C)C(=O)N[C@@H](CCCNC(=N)N)C(=O)N[C@@H](CCCCN)C(=O)NCC(=O)N[C@@H](CC(N)=O)C(=O)N[C@@H](Cc1ccc(O)cc1)C(=O)O)C(C)C)C(C)C", "note": "[Buforin I]", "values": [
      {"measurement": "plateau (time to maximal-plateau level)", "setting": "[1]", "value": "≤ 40", "unit": "min"},
      {"measurement": "time the maximal-plateau level was maintained", "setting": "[1]", "value": "up to 4 h"},
      {"measurement": "time to reach ½ the absorbed maximal value", "setting": "[1]", "value": 7.7, "unit": "min"},
      {"measurement": "uptake into the blood stream, in words", "setting": "[1]", "value": "rapid uptake"},
      {"measurement": "IC50", "setting": "BttxB", "value": 1, "unit": "µM"},
      {"measurement": "mode of inhibition of BttxB activity", "setting": "BttxB", "value": "dose-dependently and competitively inhibits"},
      {"measurement": "substrate of BttxB or not", "setting": "BttxB", "value": "not to be a substrate"}
    ]},
    {"molecule": "C[C@H](CS)C(=O)N1CCC[C@H]1C(=O)O", "note": "[captopril]", "values": [
      {"measurement": "inhibition of Bttxs, in words", "setting": "Bttxs", "value": "not effective inhibitors"}
    ]},
    {"molecule": "CC(C)C[C@H](NP(=O)(O)O[C@@H]1O[C@@H](C)[C@H](O)[C@@H](O)[C@H]1O)C(=O)N[C@@H](Cc1c[nH]c2ccccc12)C(=O)O", "note": "[phosphoramidon]", "values": [
      {"measurement": "inhibition of Bttxs, in words", "setting": "Bttxs", "value": "not effective inhibitors"}
    ]},
    {"molecule": "AGRGKQGGKVRAKAKTRSSRAGLQFPVGRVHRLLRK [Peptide 36]", "values": [
      {"measurement": "substrate of BttxB or not", "setting": "BttxB", "value": "not substrates"}
    ]},
    {"molecule": "ELDDRADALQ [Peptide V2]", "values": [
      {"measurement": "inhibition of Bttxs, in words", "setting": "Bttxs", "value": "found to inhibit Bttx activity"}
    ]},
    {"molecule": "RPKPQQFFGLM [Substance P]", "values": [
      {"measurement": "inhibition of BttxB, in words", "setting": "BttxB", "value": "weak inhibitor"},
      {"measurement": "substrate of BttxB or not", "setting": "BttxB", "value": "not a substrate"}
    ]},
    {"molecule": "TRSRAKGLQFPGLLVHRLLRKGNY [Peptide 05P]", "values": [
      {"measurement": "IC50", "setting": "BttxB", "value": "< 200", "unit": "µM"}
    ]},
    {"molecule": "TRSSRAGLQFPVGRVHRLLRKGNY [Peptide 24]", "values": [
      {"measurement": "substrate of BttxB or not", "setting": "BttxB", "value": "not substrates"}
    ]},
    {"molecule": "TRSRAKGLQFPGLLVHRLLRKGNY (modifications not checked)", "note": "[Peptide 05P]", "values": [
      {"measurement": "inhibition of botulinum B proteolytic activity", "setting": "[2]", "value": "< 200", "unit": "µM"},
      {"measurement": "potency of inhibition relative to Substance P", "setting": "[2]", "value": "< 4", "unit": "fold"}
    ]}
  ]
}
